# Source: US9126941B2, “Treatment of hyperproliferative disorders with diarylhydantoin compounds” (The Regents of the University of California, priority 2005, dated 2015)
# Read-outs that look alike come from different tables or passages of the source.
# Experiments:
# [1] = tested on: 1AR cell line; assay: Luciferase activity in the 1AR cell line; assay type: cell-based; details: for a given dose
# [2] = tested on: 4AR cell line; assay: Luciferase activity in the 4AR cell line; assay type: cell-based; details: for a given dose, 1.25 to 10 μmol
# [3] = molecular target: T1, AR (Homo sapiens, UniProt P10275); assay: cell-based; assay type: cell-based
# Method: It is well established that PSA levels are indicators of AR activities in prostate cancer. […] The LNCaP-AR cells are a line of lymph node carcinoma of prostate cells transduced with a plasmid that makes express androgen receptors. […] After four days incubation, secreted PSA levels were assayed using PSA ELISA kits (American Qualex, San Clemente, Calif.)
# [4] = tested on: MCF7; assay: Growth effect on MCF7 cells; assay type: cell-based; details: breast cancer cells
# [5] = tested on: hormone refractory LAPC4 xenograft; assay: Hormone refractory LAPC4 xenograft model; assay type: in vivo, mice; details: 1 mg per kg orally once daily, 17 days
# Method: FIG. 9. […] (A), tumor size was measured by caliber. (B), the tumors were taken out from the mice after 17 days of treatment, tumor lysate was extracted, and PSA level in tissue lysate was determined by ELISA.
# This model was established from passaging of hormone sensitive prostate cancer in castrated mice, which mimics the clinical progression of prostate cancer (2).
# [6] = molecular target: T1, AR; assay: cell-based; assay type: cell-based; remark: listed apart in the source
# Method: The compounds were subjected to tests using an artificial AR response reporter system in a hormone refractory prostate cancer cell line. […] After two days of incubation, reporter activities were assayed.
# [7] = molecular target: T1, AR; assay: cell-based
# From the text: Table 2 lists the agonistic activities of different compounds.
# [8] = tested on: DU-145 cells; assay: MTS growth assay, DU-145 cells; assay type: cell-based; details: prostate cancer cell line lacking AR expression
# [9] = tested on: LNCaP cells; assay: MTS growth assay, hormone sensitive LNCaP cells; assay type: cell-based; details: FIG. 10, MTS
# Method: FIG. 10. Inhibitory effect on growth of hormone sensitive prostate cancer cells. […] After 4 days of incubation, cell growth was measured by MTS assay.
# [10] = Pharmacokinetics in FVB mice, drug concentration by HPLC; details: mice
# Method: Mice were divided into groups of three for each time points. Two mice were not treated with drug and two other mice were treated with vehicle solution. […]
# The drug was dissolved in a mixture 1:5:14 of DMSO:PEG400:H20. (Vehicle solution) and was administered into mice through the tail vein. The animals are warmed under a heat lamp for approximately 20 minutes prior to treatment to dilate their tail vein. […] After drug administration, the animals were euthanized via CO2 inhalation at different timepoints: […], […], 2 h, 6 h, 16 h. Animals were immediately bleed after exposure to CO2 via cardiac puncture (1 ml BD syringe+27 G ⅝ needle).
# The samples for HPLC analysis were prepared according to the following procedure: • Blood cells were separated from serum by centrifugation. • To 400 μl of serum were added 80 μl of a 10 μM solution of an internal standard and 520 μl of acetonitrile. Precipitation occurred. • The mixture was vortexed for 3 minutes and then placed under ultrasound for 30 minutes. • The solid particles were filtered off or were separated by centrifugation. • The filtrate was dried under an argon flow to dryness.
# [11] = molecular target: glucocorticoid receptor (GR) (Homo sapiens (Human), UniProt P04150); assay: GR response reporter in LNCaP cells over expressing glucocorticoid receptor; assay type: cell-based; details: reporter induced by dexamethasone
# [12] = tested on: 3T3; assay: Growth effect on 3T3 fibroblasts; assay type: cell-based; details: normal mouse fibroblast cell line
# [13] = tested on: SkBr3; assay: Growth effect on SkBr3 cells; assay type: cell-based; details: breast cancer cells
# [14] = tested on: AR-overexpressed LNCaP xenograft tumors; assay: AR-overexpressed LNCaP xenograft model in castrated male SCID mice, oral once daily; assay type: in vivo; details: 44 days
# Method: FIG. 7. […] Mice with established LN-AR xenograft tumors were randomized and treated with indicated compounds orally once daily. Tumor size was measured by caliber.
# FIG. 8. […] The tumors were taken out from the mice after 44 days of treatment, tumor lysate was extracted, and PSA level in tissue lysate was determined by ELISA.
# First we examined this compound on xenograft tumors established from AR-overexpressed LNCaP cells. The engineered cells in Matrigel (Collaborative Biomedical) were injected subcutaneously into the flanks of the castrated male SCID mice. Tumor size was measured weekly in three dimensions using calipers. After xenograft tumors established (tumor size reached at least 40 mm^3), mice with tumors were randomized and treated with different doses of compounds orally once daily.
# [15] = molecular target: T1, AR; assay: cell-based; assay type: cell-based; remark: listed apart in the source
# T1 sequence (P10275 whole entry, looked up): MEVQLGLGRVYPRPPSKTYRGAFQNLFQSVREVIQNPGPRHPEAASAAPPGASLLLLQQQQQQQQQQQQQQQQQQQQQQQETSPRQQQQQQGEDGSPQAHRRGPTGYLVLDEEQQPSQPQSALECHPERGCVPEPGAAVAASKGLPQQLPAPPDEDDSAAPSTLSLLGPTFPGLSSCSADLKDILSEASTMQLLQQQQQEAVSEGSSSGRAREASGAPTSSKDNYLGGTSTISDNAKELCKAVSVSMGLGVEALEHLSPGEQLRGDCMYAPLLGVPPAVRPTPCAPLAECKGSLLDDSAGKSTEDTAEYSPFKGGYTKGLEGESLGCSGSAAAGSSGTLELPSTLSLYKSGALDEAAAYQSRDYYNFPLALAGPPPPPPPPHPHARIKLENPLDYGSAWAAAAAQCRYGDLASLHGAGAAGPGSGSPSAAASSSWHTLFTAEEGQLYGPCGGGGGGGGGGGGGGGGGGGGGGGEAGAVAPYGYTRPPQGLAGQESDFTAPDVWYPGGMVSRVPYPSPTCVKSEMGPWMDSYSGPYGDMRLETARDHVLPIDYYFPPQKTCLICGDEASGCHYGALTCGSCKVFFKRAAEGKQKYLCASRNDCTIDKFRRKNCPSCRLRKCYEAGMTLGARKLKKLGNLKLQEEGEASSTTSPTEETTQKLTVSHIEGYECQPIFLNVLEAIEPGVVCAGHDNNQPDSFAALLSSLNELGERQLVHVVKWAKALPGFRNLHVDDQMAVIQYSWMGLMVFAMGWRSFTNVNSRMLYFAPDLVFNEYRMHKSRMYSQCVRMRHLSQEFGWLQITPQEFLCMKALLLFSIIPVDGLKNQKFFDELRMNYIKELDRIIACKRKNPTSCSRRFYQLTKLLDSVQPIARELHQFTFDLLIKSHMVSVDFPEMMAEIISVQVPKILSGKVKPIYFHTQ
# glucocorticoid receptor (GR), sequence (P04150 whole entry, species assumed): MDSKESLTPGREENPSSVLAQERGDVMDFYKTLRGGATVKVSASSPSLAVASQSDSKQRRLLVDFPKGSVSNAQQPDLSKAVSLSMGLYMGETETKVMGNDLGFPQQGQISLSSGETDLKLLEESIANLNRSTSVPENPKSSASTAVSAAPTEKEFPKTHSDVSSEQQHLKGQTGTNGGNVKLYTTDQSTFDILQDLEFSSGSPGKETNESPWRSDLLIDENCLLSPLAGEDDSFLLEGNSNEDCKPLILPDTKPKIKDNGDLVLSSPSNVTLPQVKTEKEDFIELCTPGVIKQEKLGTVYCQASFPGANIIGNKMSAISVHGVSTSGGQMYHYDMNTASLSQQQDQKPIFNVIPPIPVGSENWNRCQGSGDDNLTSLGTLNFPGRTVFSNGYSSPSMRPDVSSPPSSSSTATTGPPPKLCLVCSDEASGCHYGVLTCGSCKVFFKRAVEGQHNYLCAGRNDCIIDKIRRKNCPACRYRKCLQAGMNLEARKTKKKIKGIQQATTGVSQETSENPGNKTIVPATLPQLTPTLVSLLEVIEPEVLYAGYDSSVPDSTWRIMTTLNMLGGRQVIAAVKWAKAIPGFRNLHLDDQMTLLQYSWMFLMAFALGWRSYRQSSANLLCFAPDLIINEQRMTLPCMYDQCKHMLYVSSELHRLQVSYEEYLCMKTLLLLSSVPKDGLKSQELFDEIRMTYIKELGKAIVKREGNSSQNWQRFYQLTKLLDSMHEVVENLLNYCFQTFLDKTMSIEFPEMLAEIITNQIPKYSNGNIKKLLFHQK
structure (smiles),measurement,setting,value
"CC1(C)C(=O)N(c2ccc(C#N)c(C(F)(F)F)c2)C(=S)N1c1ccc(O)cc1 [RD8, 4-[3-(4-hydroxyphenyl)-4,4-dimethyl-5-oxo-2-thioxoimidazolidin-1-yl]-2-trifluoromethylbenzonitrile]","Luciferase activity, 1AR cell line",[1],less than the luciferase activity upon exposure to RD9
same,"Luciferase activity, 4AR cell line (FIG. 26)",[2],less than the luciferase activity upon exposure to RD9
same,"PSA level, LN/AR cell line, comparison",[3]; for a given dose / concentration,less than the PSA level upon exposure to RD9
"Cc1ccc(N2C(=S)N(c3ccc(C#N)c(C(F)(F)F)c3)C(=O)C23CCC3)cc1 [RD37, 4-(8-oxo-6-thioxo-5-(4-methylphenyl)-5,7-diazaspiro[3.4]oct-7-yl)-2-trifluoromethylbenzonitrile]",Growth effect on MCF7,[4],no growth effect
same,Growth of hormone refractory LAPC4 xenograft (FIG. 9a),[5],strongly inhibited
same,PSA expression in hormone refractory LAPC4 xenograft (FIG. 9b),[5],strongly inhibited
same,IC50,[6],124 nM
same,IC50 compared with bicalutamide (FIG. 15),[6]; assay not specified,much lower than the IC50 for bicalutamide
same,IC50,[3],128 nM
same,"Rank order, most active to least active, relative PSA level (FIG. 4)",[3]; 500 nM,RD138>RD131>RD37>RD133>RD134>RD137>RD138>RD135>bicalutamide
same,"Decrease in PSA level of LNCaP-AR cells, comparison (FIG. 4)",[3]; at concentrations of 1000 nM,"greater decrease in PSA level of LNCaP-AR cells than RD133, RD134, and RD138"
same,"Agonistic activity on AR, reporter","[7]; LN-AR, absence of R1881",no agonistic activity
same,fold induction at 0.1 µM,"[7]; read-out: Fold induction of AR response reporter, 0.1 μM",0.87
same,fold induction at 1 µM,"[7]; read-out: Fold induction of AR response reporter, 1 μM",1.19
same,fold induction at 10 µM,"[7]; read-out: Fold induction of AR response reporter, 10 μM",0.89
same,Growth inhibitory effect on DU-145 cells,[8],no growth inhibitory effect
same,Potency relative to bicalutamide on hormone sensitive prostate cancer cells,[9],10 fold
same,"Pharmacokinetic behavior, residence time in blood",[10],metabolize fast
same,Effect on GR response reporter,[11],no effect on GR
same,Growth effect on 3T3,[12],no growth effect
same,Growth effect on SkBr3,[13],no growth effect
same,Growth of LNCaP-AR xenograft tumors (FIG. 7a),[14]; 1 mg per kg orally once daily,strongly inhibited growth
same,Dose dependence of tumor growth inhibition (FIG. 7b),"[14]; 0.1, 1 or 10 mg per kg",dose-dependent
same,PSA expression in xenograft tumors (FIG. 8),"[14]; 0.1, 1 or 10 mg per kg, tumor lysate ELISA",inhibited PSA expression
same,"Agonistic activity, secreted PSA","[15]; AR over expressed LNCaP, absence of R1881",no agonistic activities
same,fold induction at 0.1 µM,"[15]; LNCaP, read-out: Fold induction of endogenous PSA, 0.1 μM",1.25
same,fold induction at 1 µM,"[15]; LNCaP, read-out: Fold induction of endogenous PSA, 1 μM",1.2
same,fold induction at 10 µM,"[15]; LNCaP, read-out: Fold induction of endogenous PSA, 10 μM",1.15
